The subject of experiment [1] is Helicoverpa armigera. Briefly: Insecticidal activity against Heliothis armigera larvae reared on artificial diet assessed as growth inhibition after 72 hr. In kind it is functional, organism-based.
Experiment [2] concerns HL-60. Briefly: Cytotoxicity against Homo sapiens (human) HL60 cells at 10 uM by MTT assay. The class given is functional, cell-based. (Formazan colour is commonly taken as a measure of viable cells.)
Experiment [3] concerns KB. Briefly: Cytotoxicity against Homo sapiens (human) KB cells at 10 uM by MTT assay. The class given is functional, cell-based.
Experiment [4] concerns Bel-7402. Briefly: Cytotoxicity against Homo sapiens (human) Bel7402 cells at 10 uM by MTT assay. In kind it is functional, cell-based.
The test system of experiment [5] is BGC-823. The experiment can be described thus: Cytotoxicity against Homo sapiens (human) BGC823 cells at 10 uM by MTT assay. In kind it is functional, cell-based.
Experiment [6] concerns Spodoptera exigua. The experiment can be described thus: Insecticidal activity against Spodoptera exigua larvae reared on artificial diet assessed as mortality rate after 72 hr. In kind it is functional. Conditions: for LC50: Spodoptera exigua, 72 h.
Experiment [7] has as its system Spodoptera exigua. The experiment can be described thus: Insecticidal activity against Spodoptera exigua larvae reared on artificial diet assessed as mortality rate at 96.88 ppm after 72 hr. In kind it is functional.
The subject of experiment [8] is Spodoptera exigua. Briefly: Insecticidal activity against Spodoptera exigua larvae reared on artificial diet assessed as mortality rate at 73.63 ppm after 72 hr. The class given is functional.
Experiment [9] has as its system Spodoptera exigua. Briefly: Insecticidal activity against Spodoptera exigua larvae reared on artificial diet assessed as mortality rate at 56.19 ppm after 72 hr. The class given is functional.
For experiment [10], the system named is Spodoptera exigua. Briefly: Insecticidal activity against Spodoptera exigua larvae reared on artificial diet assessed as mortality rate at 42.63 ppm after 72 hr. The class given is functional.
For experiment [11], the system named is Spodoptera exigua. Briefly: Insecticidal activity against Spodoptera exigua larvae reared on artificial diet assessed as mortality rate at 32 ppm after 72 hr. The class given is functional.
Experiment [12] concerns Spodoptera exigua. Briefly: Insecticidal activity against Spodoptera exigua larvae reared on artificial diet assessed as mortality rate at 95.65 ppm after 72 hr. The class given is functional.
Experiment [13] concerns Spodoptera exigua. Briefly: Insecticidal activity against Spodoptera exigua larvae reared on artificial diet assessed as mortality rate at 72.68 ppm after 72 hr. In kind it is functional.
For experiment [14], the system named is Spodoptera exigua. The experiment can be described thus: Insecticidal activity against Spodoptera exigua larvae reared on artificial diet assessed as mortality rate at 55.64 ppm after 72 hr. In kind it is functional.
For experiment [15], the system named is Spodoptera exigua. Briefly: Insecticidal activity against Spodoptera exigua larvae reared on artificial diet assessed as mortality rate at 42.08 ppm after 72 hr. The class given is functional.
The test system of experiment [16] is Spodoptera exigua. The experiment can be described thus: Insecticidal activity against Spodoptera exigua larvae reared on artificial diet assessed as mortality rate at 31.56 ppm after 72 hr. In kind it is functional.

Values after ≈ are worked out from the molar mass of the structure shown. Active and inactive are the calls of the source. The calls are words filed in the database; no cut-off is given here.

As for `CC(C)[C@@]1(O)[C@H](O)[C@@H]2[C@@]3(O)[C@@H]4O[C@@](O)(C[C@@]2(C)[C@@]2(O)CC[C@](C)(O)[C@@H]42)[C@]31C`, in experiment [1], the “growth inhibition (GI)” value is “inactive”.
Take `CC(CO[C@@H]1O[C@H](CO)[C@@H](O)[C@H](O)[C@H]1O)[C@@]1(O)[C@H](O)[C@@H]2[C@@]3(O)[C@@H]4O[C@@](O)(C[C@@]2(C)[C@@]2(O)CC[C@@H](C)[C@@H]42)[C@]31C` (stereo partly specified): the outcome in [2], in [3], in [4] and in experiment [5] was inactive. In [1], the “growth inhibition (GI)” value is “inactive”.
As for `C[C@@H]1CC[C@@]2(O)[C@@H]1[C@H]1O[C@@]3(O)C[C@]2(C)[C@@H]2[C@@H](O)[C@](O)(C(C)(C)O)[C@@]3(C)[C@]12O`, the result in [2], in experiment [3], in experiment [4] and in experiment [5] was inactive. Besides, in experiment [1], the “growth inhibition (GI)” value is “inactive”.
As to `CC(C)[C@@]1(O)[C@H](O)[C@@H]2[C@@]3(O)[C@@H]4O[C@@](O)(C[C@@]2(C)[C@@]2(O)CC[C@@H](C)[C@@H]42)[C@]31C` [ITOL A], in [6], the LC90 was 67.68 µg/mL (≈ 184 µM). The LC50 (commonly the concentration lethal to half of the exposed cells or organisms) in [6] was 28.6 µg/mL (≈ 77.7 µM). Also, the mortality (as a rule, the share of the test organisms that died) at 96.88 ppm in experiment [7] was determined as 96%. The mortality at 73.63 ppm in [8] is 94%. The mortality at 56.19 ppm in [9] was determined as 83%. Also, the mortality at 42.63 ppm in experiment [10] turned out to be 73%. Moreover, the mortality at 32 ppm in experiment [11] came to 56%. For the same compound, the outcome in [2], in experiment [3], in experiment [4] and in [5] was inactive. The “growth inhibition (GI)” value in experiment [1] was “inactive”.
Regarding `CC(C)[C@@]1(O)[C@H](O[C@@H]2O[C@H](CO)[C@@H](O)[C@H](O)[C@H]2O)[C@@H]2[C@@]3(O)[C@@H]4O[C@@](O)(C[C@@]2(C)[C@@]2(O)CC[C@@H](C)[C@@H]42)[C@]31C`, the result in [2], in experiment [3], in experiment [4] and in experiment [5] was inactive. In addition, the “growth inhibition (GI)” value in experiment [1] is “inactive”.
With `CC(CO)[C@@]1(O)[C@H](O)[C@@H]2[C@@]3(O)[C@@H]4O[C@@](O)(C[C@@]2(C)[C@@]2(O)CC[C@@H](C)[C@@H]42)[C@]31C` (stereo partly specified) [ITOL B], in experiment [6], the LC90 was 131.7 µg/mL (≈ 343 µM) and the LC50 is 52.8 µg/mL (≈ 137 µM). Further, in experiment [12], the mortality at 95.65 ppm is 77%. In addition, the mortality at 72.68 ppm in experiment [13] is 69%. Further, the mortality at 55.64 ppm in [14] stood at 59%. Further, in [15], the mortality at 42.08 ppm amounted to 31%. The mortality at 31.56 ppm in experiment [16] was determined as 26%. In experiment [1], the “growth inhibition (GI)” value is “inactive”.

The values above are taken from ChEMBL document CHEMBL3046839, “Six insecticidal isoryanodane diterpenoids from the bark and twigs of Itoa orientalis” (2008).
